ChEMBL document CHEMBL2413061, “Synthesis and cytotoxic activity evaluation of 2,3-thiazolidin-4-one derivatives on human breast cancer cell lines” (Bioorg Med Chem Lett, 2013)
Calls of active or inactive are those of the source. The calls are words filed in the database; no cut-off is given here.

Assays:
NIH3T3 = assay: Cytotoxicity against mouse 3T3 cells assessed as cell viability at 0.1 to 10 uM after 72 hrs by MTT assay; format: cell-based; details: nih3t3, 72 h
MCF7 [1] = assay: Cytotoxicity against human estrogen receptor positive MCF7 cells at 50 uM after 72 hrs by MTT assay; format: functional, cell-based
MCF7 [2] = assay: Cytotoxicity against human estrogen receptor positive MCF7 cells at 0.1 uM after 72 hrs by MTT assay; format: functional, cell-based
SK-BR-3 [3] = assay: Cytotoxicity against human estrogen receptor negative SKBR3 cells after 72 hrs by MTT assay; format: functional, cell-based; details: SK-BR-3, 72 h
SK-BR-3 [4] = assay: Cytotoxicity against human estrogen receptor negative SKBR3 cells at 0.1 to 50 uM after 72 hrs by MTT assay; format: functional, cell-based
MCF7 [5] = assay: Cytotoxicity against human estrogen receptor positive MCF7 cells after 72 hrs by MTT assay; format: functional, cell-based; details: for IC50: MCF7, 72 h
MCF7 [6] = assay: Cytotoxicity against human estrogen receptor positive MCF7 cells at 1 to 10 uM after 72 hrs by MTT assay; format: functional, cell-based
SK-BR-3 [7] = assay: Cytotoxicity against human estrogen receptor negative SKBR3 cells at 10 uM after 72 hrs by MTT assay; format: functional, cell-based
MCF7 [8] = assay: Cytotoxicity against human estrogen receptor positive MCF7 cells at 1 uM after 72 hrs by MTT assay; format: functional, cell-based

Question: How did the Activity (NIH3T3) turn out when `Cc1ccc(N2C(=O)CSC2c2cccc3ccccc23)cc1` (stereo unspecified) was run?
Answer: Non-toxic

Question: And the inhibition (MCF7 [1])?
Answer: inactive

Question: What about the inhibition (MCF7 [2]) of the same compound?
Answer: Active

Question: And the IC50 (SK-BR-3 [3])?
Answer: 250 nM

Question: `COc1cc(C2SCC(=O)N2c2ccc(C)cc2)cc(OC)c1OC` (stereo unspecified) was tested. Which Activity (NIH3T3) did it give?
Answer: Non-toxic

Question: What about the IC50 (SK-BR-3 [3]) of the same compound?
Answer: 230 nM

Question: What does the source list for `COc1ccc(C2SCC(=O)N2c2ccc(O)cc2)c(OC)c1` (stereo unspecified)?
Answer: inhibition (SK-BR-3 [4]): inactive; Activity (MCF7 [5]): Dose-dependent effect; Activity (NIH3T3): Non-toxic

Question: How did the Activity (MCF7 [5]) turn out when `O=C1CSC(c2ccccc2)N1c1ccccc1` (stereo unspecified) was run?
Answer: Dose-dependent effect

Question: And the Activity (NIH3T3)?
Answer: Non-toxic

Question: What about the IC50 (SK-BR-3 [3]) of the same compound?
Answer: 810 nM

Question: Which inhibition (SK-BR-3 [4]) does the source give for `O=C1CSC(c2ccc(O)cc2O)N1c1ccc(O)cc1` (stereo unspecified) here?
Answer: inactive

Question: And the Activity (NIH3T3)?
Answer: Non-toxic

Question: With `O=C1CSC(c2ccc(Cl)cc2)N1c1ccc(O)cc1` (stereo unspecified) as the compound, how does the inhibition (SK-BR-3 [4]) read?
Answer: inactive

Question: What about the Activity (MCF7 [5]) of the same compound?
Answer: Dose-dependent effect

Question: What about the IC50 (MCF7 [5]) of the same compound?
Answer: 5000 nM

Question: And the Activity (MCF7 [6])?
Answer: Active

Question: What about the inhibition (SK-BR-3 [7]) of the same compound?
Answer: Active

Question: And the Activity (NIH3T3)?
Answer: Non-toxic

Question: For `COc1ccc(C2SCC(=O)N2c2ccc(O)cc2)cc1OC` (stereo unspecified), which inhibition (SK-BR-3 [4]) is on record?
Answer: inactive

Question: What about the Activity (MCF7 [5]) of the same compound?
Answer: Dose-dependent effect

Question: And the IC50 (MCF7 [5])?
Answer: 2580 nM

Question: What about the Activity (MCF7 [6]) of the same compound?
Answer: Active

Question: What about the inhibition (SK-BR-3 [7]) of the same compound?
Answer: Active

Question: And the Activity (NIH3T3)?
Answer: Non-toxic

Question: For `Cc1ccc(N2C(=O)CSC2c2ccc(Cl)cc2)cc1` (stereo unspecified), which inhibition (SK-BR-3 [4]) is on record?
Answer: inactive

Question: And the Activity (MCF7 [5])?
Answer: Dose-dependent effect

Question: And the inhibition (SK-BR-3 [7])?
Answer: Active

Question: What about the Activity (NIH3T3) of the same compound?
Answer: Non-toxic

Question: Which inhibition (SK-BR-3 [4]) does the source give for `COc1cc(C2SCC(=O)N2c2ccc(O)cc2)cc(OC)c1OC` (stereo unspecified) here?
Answer: inactive

Question: And the Activity (MCF7 [5])?
Answer: Dose-dependent effect

Question: What about the inhibition (SK-BR-3 [7]) of the same compound?
Answer: Active

Question: And the Activity (NIH3T3)?
Answer: Non-toxic

Question: For `O=C1CSC(c2ccc(O)c(O)c2)N1c1ccc(O)cc1` (stereo unspecified), which inhibition (SK-BR-3 [4]) is on record?
Answer: inactive

Question: What about the inhibition (MCF7 [8]) of the same compound?
Answer: Active

Question: What about the Activity (NIH3T3) of the same compound?
Answer: Non-toxic

Question: And the inhibition (MCF7 [1])?
Answer: inactive

Question: How did the IC50 (MCF7 [5]) turn out when `Oc1ccc(/C=C/c2cc(O)cc(O)c2)cc1` [RESVERATROL] was run?
Answer: 28100 nM

Question: And the IC50 (SK-BR-3 [3])?
Answer: 41400 nM

Question: Which results are given for `O=C1CSC(c2ccc(O)cc2)N1c1ccc(O)cc1` (stereo unspecified)?
Answer: inhibition (SK-BR-3 [4]): inactive; Activity (NIH3T3): Non-toxic

Question: What does the source list for `O=C1CSC(c2cc(O)cc(O)c2)N1c1ccc(O)cc1` (stereo unspecified)?
Answer: inhibition (SK-BR-3 [4]): inactive; Activity (MCF7 [5]): Dose-dependent effect; inhibition (SK-BR-3 [7]): Active; Activity (NIH3T3): Non-toxic
